The values that follow are results of earlier work, collected in patent US6375990B1, “Method and devices for transdermal delivery of lithium” (Emory University, priority 1997, dated 2002).

For data set [1] the following is noted: patients who do not respond to antidepressant monotherapy.
Experiment in data set [2]: not given
This is another data set of the same source.

Regarding `[Li+]` [Li^+, Lithium], the “final volume of distribution (Vd)” value (approximates total body water) is 0.7 to 0.9 L/kg. Also, the “time to maximal plasma Li+ concentration (Tmax)” value (immediate release formulations, following an oral dose) was 1 to 4 h. Also, where the note is “in vivo”, the “binding to blood proteins” value was “does not bind to blood proteins”; the “biotransformation / metabolic conversion” value is reported as “not biotransformed”; the “elimination through sweat, saliva, and feces” value is reported as “less than 5 % of an oral dose”; the “excretion through the kidneys” value was > 90%. For the setting “in vivo”, the “filtered load reabsorbed in the renal proximal tubules” value is “Eighty” and the half-life (commonly the time in which the quantity being followed falls by half) is 18 to 36 h. Besides, the “absorption from the gastrointestinal tract” value (oral administration) is “readily and nearly completely absorbed”. Moreover, the “antidepressant non-responders converted to responders” value in data set [1] is listed as “approximately 50 % of patients”. The “plasma concentration associated with life-threatening intoxication” value in data set [2] (plasma) was “exceeding 3.5 mEq/L”. For the same molecule, in data set [2] (serum), the “serum concentration above which adverse effects increase greatly” value is “exceed 1.5 mEq/L”.
